Results published in patent publication US10059721B2, “Substituted thieno[3,2-b]pyrazines for inhibiting cancer cell proliferation and inducing cancer cell apoptosis” (DONGGUK UNIVERSITY INDUSTRY-ACADEMIC COOPERATION FOUNDATION, priority 2014, dated 2018).
Each block holds one compound with its values, some of them ahead of it.

Assays:
Type in all cases: cell-based
[1] = tested on: MDA-MB-231 (breast cancer) cell line; experiment: Cell growth inhibition experiment (SRB), MDA-MB-231; settings: Homo sapiens, incubated for 96 hours, read-out: IC50 (μM) of cancer cell lines MDA-MB-231
Method: (§1) The cell lines below were used in order to confirm the efficacy of the compounds synthesized in Examples 1 to 27. Human PANC-1 (pancreatic cancer) and MDA-MB-231 (breast cancer) cell lines were obtained from American Type Culture Collection (ATCC; Manassas, Va.); and HN31 (head and neck cancer) and UMRC2 (kidney cancer) cell lines were secured from the United States National Institutes of Health (Bethesda, Md.). The MDA-MB-231, UMRC2, HN31, and PANC-1 cell lines were cultured in Dulbecco modified Eagle medium (DMEM) containing FBS (10%), HEPES (10 mM), penicillin (100 U/mL), and streptomycin (100 μg/mL). All cell lines were cultured in an incubator (37° C., 5% CO2).
(§2) The 4-(aryl)-N-(2-alkoxythieno[3,2-b]pyrazin-3-yl)-piperazin-1-carboxamide derivative compounds synthesized according to Examples 1 to 27 of the present invention were treated with various human tissue-derived cancer cell lines cultured according to Experimental Example 1, and thus the inhibitory effect of the growth of human cancer cells was confirmed. The cell growth inhibition experiment was conducted using sulforhodamine B (SRB) technique (Skehan et al., J. National Cancer Institute, 1990, 82: 1107-1112). Specifically, each cell line was seeded in a 96-well plate at a density of 2 to 3×10^3 cells/well, cultured overnight, and then treated with the 4-(aryl)-N-(2-alkoxythieno[3,2-b]pyrazin-3-yl)-piperazin-1-carboxamide derivative compounds of the present invention. The experiment was repeated 3 times for each compound. Cells treated with each compound were additionally incubated for 96 hours, fixed with 10% trichloroacetic acid (TCA), and then left at 4° C. for 1 hour. The resultant was washed 3 times with distilled water. Thereafter, each cell was treated with 0.4% sulforhodamine B dissolved in 1% acetic acid, stained for 30 minutes, and then washed 4 times with 1% acetic acid. The resultant was dried in the air. After shaking the resultant in Tris solution (10 mM) for 5 minutes, the absorbance was measured at 530 nm using a Benchmark Plus Microplate reader (Bio-Rad Laboratories, Hercules, Calif.).
(§3) In order to convert the OD530 value to the number of viable cells per each well, the measured OD530 value was compared to the standard OD530-vs.-cell number curve of each cell line. The percent survival was calculated using the following formula: % survival=Nlive cells(test)/Nlive cells(control)×100
(§4) IC50 values were calculated by nonlinear regression analysis.

[2] = tested on: UMRC2 (kidney cancer) cell line; experiment: Cell growth inhibition experiment (SRB), UMRC2; settings: Homo sapiens, incubated for 96 hours, read-out: IC50 (μM) of cancer cell lines UMRC2
Method: as §1, §2, §3, §4

[3] = tested on: PANC-1 (pancreatic cancer) cell line; experiment: Cell growth inhibition experiment (SRB), PANC-1; settings: Homo sapiens, incubated for 96 hours, read-out: IC50 (μM) of cancer cell lines PANC-1
Method: as §1, §2, §3, §4

[4] = tested on: HN31 (head and neck cancer) cell line; experiment: Cell growth inhibition experiment (SRB), HN31; settings: Homo sapiens, incubated for 96 hours, read-out: IC50 (μM) of cancer cell lines HN31
Method: as §1, §2, §3, §4

A549 = experiment: Cell growth inhibition experiment (SRB), A549; settings: Homo sapiens, incubated for 96 hours, read-out: IC50 (μM) of cancer cell lines A549
Method: as §2, §3, §4

HEK293 = experiment: Cell growth inhibition experiment (SRB), HEK293; settings: Homo sapiens, incubated for 96 hours, read-out: IC50 (μM) of cancer cell lines HEK293
Method: as §2, §3, §4

HUVEC = experiment: Cell growth inhibition experiment (SRB), HUVEC; settings: Homo sapiens, incubated for 96 hours, read-out: IC50 (μM) of cancer cell lines HUVEC
Method: as §2, §3, §4

HT29 = experiment: Cell growth inhibition experiment (SRB), HT29; settings: Homo sapiens, HT-29, incubated for 96 hours, read-out: IC50 (μM) of cancer cell lines HT29
Method: as §2, §3, §4

SK-OV-3 = experiment: Cell growth inhibition experiment (SRB), SK-OV-3; settings: Homo sapiens, incubated for 96 hours, read-out: IC50 (μM) of cancer cell lines SK-OV-3
Method: as §2, §3, §4

IC50 [1]: < 2.5 µM
IC50 [2]: < 2.5 µM
IC50 [3]: < 2.5 µM
IC50 [4]: < 2.5 µM
IC50 (A549): < 2.5 µM
IC50 (HT29): < 2.5 µM
IC50 (SK-OV-3): < 2.5 µM
Structure (SMILES): CC(C)Oc1nc2ccsc2nc1NC(=O)N1CCN(c2cc(F)cc(F)c2)CC1 [Example 18, 4-(3,5-difluorophenyl)-N-(2-isopropoxythieno[3,2-b]pyrazin-3-yl)piperazin-1-carboxamide]
IC50 (HEK293): < 2.5 µM
IC50 (HUVEC): < 2.5 µM

IC50 [1]: 2.21 µM
IC50 [2]: 1.74 µM
IC50 [3]: 2.12 µM
IC50 [4]: < 2.5 µM
IC50 (A549): 1.63 µM
IC50 (HT29): 1.85 µM
IC50 (SK-OV-3): 1.85 µM
Structure (SMILES): COc1cc(C)cc(N2CCN(C(=O)Nc3nc4sccc4nc3OC)CC2)c1 [Example 21, 4-(3-methoxy-5-methylphenyl)-N-(2-methoxythieno[3,2-b]pyrazin-3-yl)piperazin-1-carboxamide]
IC50 (HEK293): 1.25 µM
IC50 (HUVEC): < 2.5 µM

IC50 [1]: 0.34 µM
IC50 [2]: 0.57 µM
IC50 [3]: < 2.5 µM
IC50 [4]: 0.65 µM
IC50 (A549): < 2.5 µM
IC50 (HT29): < 2.5 µM
IC50 (SK-OV-3): < 2.5 µM
Structure (SMILES): CCOc1nc2ccsc2nc1NC(=O)N1CCN(c2cc(C)cc(C)c2)CC1 [Example 14, 4-(3,5-dimethylphenyl)-N-(2-ethoxythieno[3,2-b]pyrazin-3-yl)piperazin-1-carboxamide]
IC50 (HEK293): < 2.5 µM
IC50 (HUVEC): < 2.5 µM

IC50 [1]: 0.25 µM
IC50 [2]: < 2.5 µM
IC50 [3]: 0.36 µM
IC50 [4]: 0.36 µM
IC50 (A549): 0.15 µM
IC50 (HT29): 0.62 µM
IC50 (SK-OV-3): 0.22 µM
Structure (SMILES): COc1nc2ccsc2nc1NC(=O)N1CCN(c2cc(OC(F)(F)F)cc(C(F)(F)F)c2)CC1 [Example 20, N-(2-methoxythieno[3,2-b]pyrazin-3-yl)-4-(3-(trifluoromethoxy)-5-(trifluoromethyl)phenyl)piperazin-1-carboxamide]
IC50 (HEK293): 0.12 µM
IC50 (HUVEC): 0.21 µM

The remaining lines, values behind:

Structure (SMILES): COc1cc(OC)cc(N2CCN(C(=O)Nc3nc4sc(Cl)cc4nc3OC(C)C)CC2)c1 [Example 7, N-(6-chloro-2-isopropoxythieno[3,2-b]pyrazin-3-yl)-4-(3,5-dimethoxyphenyl)piperazin-1-carboxamide]
IC50 [1]: < 2.5 µM
IC50 [2]: < 2.5 µM
IC50 [3]: < 2.5 µM
IC50 [4]: < 2.5 µM
IC50 (A549): < 2.5 µM
IC50 (HEK293): < 2.5 µM
IC50 (HUVEC): < 2.5 µM
IC50 (HT29): < 2.5 µM
IC50 (SK-OV-3): < 2.5 µM

Structure (SMILES): CCOc1nc2cc(Cl)sc2nc1NC(=O)N1CCN(c2cc(F)cc(F)c2)CC1 [Example 6, N-(6-chloro-2-ethoxythieno[3,2-b]pyrazin-3-yl)-4-(3,5-difluorophenyl)piperazin-1-carboxamide]
IC50 [1]: 1.13 µM
IC50 [2]: 1.21 µM
IC50 [3]: 1.98 µM
IC50 [4]: 2.1 µM
IC50 (A549): < 2.5 µM
IC50 (HEK293): < 2.5 µM
IC50 (HUVEC): < 2.5 µM
IC50 (HT29): < 2.5 µM
IC50 (SK-OV-3): < 2.5 µM

Structure (SMILES): COc1nc2cc(Cl)sc2nc1NC(=O)N1CCN(c2cc(C)cc(C)c2)CC1 [Example 2, N-(6-chloro-2-methoxythieno[3,2-b]pyrazin-3-yl)-4-(3,5-dimethylphenyl)piperazin-1-carboxamide]
IC50 [1]: 0.06 µM
IC50 [2]: 0.08 µM
IC50 [3]: 0.95 µM
IC50 [4]: 0.99 µM
IC50 (A549): < 2.5 µM
IC50 (HEK293): 0.93 µM
IC50 (HUVEC): 0.91 µM
IC50 (HT29): 0.62 µM
IC50 (SK-OV-3): 0.82 µM

Structure (SMILES): Cc1cc(C)cc(N2CCN(C(=O)Nc3nc4sc(Cl)cc4nc3OC(C)C)CC2)c1 [Example 8, N-(6-chloro-2-isopropoxythieno[3,2-b]pyrazin-3-yl)-4-(3,5-dimethylphenyl)piperazin-1-carboxamide]
IC50 [1]: < 2.5 µM
IC50 [2]: < 2.5 µM
IC50 [3]: < 2.5 µM
IC50 [4]: < 2.5 µM
IC50 (A549): < 2.5 µM
IC50 (HEK293): < 2.5 µM
IC50 (HUVEC): < 2.5 µM
IC50 (HT29): < 2.5 µM
IC50 (SK-OV-3): < 2.5 µM
